No end group written: not given here.
Assays:
[1] = test system: AmNaV; test: Two-electrode voltage clamp, AmNaV expressed in Xenopus laevis oocytes; type: biochemical, A. mellifera; conditions: 500 nM sHt1a
Source text: (§1) To examine the activity of sHt1a against target and off-target arthropod voltage-gated sodium (NaV) channels, we used electrophysiological recordings of V. destructor (Vd) or A. mellifera (Am) NaV channels expressed in Xenopus laevis oocytes. The cDNA sequences of the VdNaV (in pGH19; kindly gifted by K. Dong[31]) and AmNaV channel (in pcDNA3.1; Genscript, USA) were confirmed by automated Sanger sequencing (Eurofins Genomics, Germany). RNA was synthesised using T7 polymerase (mMessage mMachine kit, Invitrogen, USA) after linearising the cDNA with an appropriate restriction enzyme (New England Biolabs, USA). NaV channel RNA was microinjected into defolliculated X. laevis oocytes (Nasco®, USA) which were then incubated for 2–3 days at 17 °C in Barth’s medium (in millimolar (mM): 96 NaCl, 2 KCl, 5 HEPES, 1 MgCl2, and 1.8 CaCl2 supplemented with 50 µg/mL gentamycin, pH 7.4 adjusted with NaOH (Sigma, USA)). The use of X. laevis complied with national and Flemish guidelines adhered to by the Ghent University Animal Care and Use Committee. Electrophysiological characteristics were studied using the two-electrode voltage-clamp technique (OC-725C; Warner Instruments, USA) with a 150-µL recording chamber as previously described. All data were filtered at 4 kHz (tunable active filter model 900, Frequency Devices Inc., USA) and digitised at 20 kHz using pClamp 10 software (Molecular Devices, USA). The external recording solution used was ND-100 (in mM: 100 NaCl, 5 HEPES, 1 MgCl2, and 1.8 CaCl2, pH 7.6 adjusted with NaOH; chemicals from Sigma, USA). Microelectrode (Narishige® PC-10 vertical puller) resistances were 0.5–1.0 MΩ when backfilled with 3 M KCl. All experiments were performed at room temperature (~22 °C).
(§2) For electrophysiological experiments, sHt1a dissolved at 50 µM in ND100 was added to the recording chamber containing ND100 to a final concentration of 500 nM. After current stabilisation, normalized conductance-voltage (G-V) and channel availability relationships were obtained by measuring steady-state currents upon stepwise depolarisation for 50 ms from a holding potential of –90 mV in 5 mV increments, followed by a 50 ms pulse at –20 mV. The data were fitted with a single Boltzmann function according to I/Imax (or G/Gmax) = [1+exp(-zF(V-V1/2)/RT)]^−1, where I/Imax is the normalised current amplitude, z is the equivalent charge, V1/2 is the half-activation voltage, F is Faraday’s constant, R is the gas constant, and T is the temperature in Kelvin. Off-line data analysis was performed using Clampfit 10 (Molecular Devices, USA), Excel (Microsoft Office) and Prism 10 (GraphPad). Tests for statistical differences included a student’s t-test for V1/2 values and a Kruskal–Wallis test for current inhibition, with p < 0.05 considered to be significant.

[2] = test system: VdNaV; test: Two-electrode voltage clamp, VdNaV expressed in Xenopus laevis oocytes; type: biochemical, V. destructor; conditions: for varroa vs honeybee NaV channel potency: VdNaV compared with AmNaV, 500 nM
Source text: as §1, §2

[3] = AmNav, mean ± SEM, n = 6 oocytes
[4] = VdNav, 500 nM sHt1a, mean ± SEM, n = 5 oocytes

## KYCAPRKAVCNTPADCCDKSSRCAYPNYGLGYYLDSEFFGKRKICSWRL (also: bicyclic or more (positions not given here)) [Ht1a, μ-gradutoxin-Ht1a]
[1]; ND-100 pH 7.6, ~22 °C, p = 0.0095 (Kruskal–Wallis)
  reduction in peak AmNaV current: 24.7 ± 7.2%
[1]; AmNaV, vs before treatment
  change in half-maximal activation or inactivation values: without a significant change
[1]; [3]
  Activation Hill slope: 3.62 ± 0.61
  Activation V1/2: –27.6 ± 1.3 mV
  Steady state inactivation Hill slope: –5.12 ± 1.44
  Steady state inactivation V1/2: –48.2 ± 1.0 mV
[2]; 500 nM sHt1a, ND-100 pH 7.6, ~22 °C, p = 0.0212 (Kruskal–Wallis)
  reduction in peak VdNaV current: 25.3 ± 7.8%
[2]
  varroa vs honeybee NaV channel potency: equal potency
[2]; listed as sHt1a
  varroa vs honeybee NaV channel potency: equally active
[2]; VdNaV, 500 nM sHt1a, vs before treatment
  change in half-maximal activation or inactivation values: without a significant change
[2]; [4]
  Activation Hill slope: 3.44 ± 0.55
  Activation V1/2: –17.7 ± 0.7 mV
  Steady state inactivation Hill slope: –4.90 ± 1.29
  Steady state inactivation V1/2: –40.8 ± 0.5 mV
[2]; authors' comparison of 500 nM sHt1a data (VdNaV, AmNaV) with literature IC50/EC50
  potency relative to other insect NaV channel targeting spider toxins: less potent than Tx4(6-1) (IC50 = 25 nM[33]) or Dc1a (EC50 = 65 nM[34]), but similarly potent to Aps III (IC50 = 540 nM[35]) and Jingzhaotoxin-I

Reference: article PMC13233288, “Spider venom peptides Ht1a and Gg1a are toxic to honeybee parasite Varroa destructor by topical application” (npj Drug Discovery, 2026)
